Experiments:
[1] = test system: MMP-1 released by human dermal fibroblasts; assay: Release of MMP-1 by dermal fibroblasts with and without UVA radiation; format: cell-based
Source text: (§1) The ability of leaf extracts from Argania spinosa to reduce the toxic effect of UVA rays was investigated. This in vitro test investigates the ability to reduce the content of matrix metalloproteinases, such as, for example, MMP-1, which are released by human fibroblasts following UVA radiation. More MMP are released under the influence of UVA radiation. UVA rays were chosen as the model since they penetrate into the dermis, where they induce oxidative stress, which accelerates skin aging. Furthermore, it is already known that the release of matrix metalloproteinases increases during the normal aging process of the skin. Inhibition of the MMP would thus counteract the aging process of the skin.
(§2) The in vitro system used was a culture of dermal fibroblasts, and the parameter determined was the release of MMP-1 from these fibroblasts under the influence of UV radiation.
(§3) To carry out the experiment, a fibroblast culture was prepared in a defined culture medium (DMEM) with fetal calf serum and inoculated 2–3 days later with the test substances. […] After the end of the irradiation, the fibroblast culture was incubated again for 2 days, and then, on a sample of the supernatant of the culture solution, the content of MMP-1 and TIMP-1 was determined. […]
(§4) The MMP and TIMP were determined using two different kits, which are commercially available under the name RPN2610 and RPN2611 from Amersham. […]

[2] = test system: TIMP-1 in human dermal fibroblast culture; assay: Content of TIMP-1 in supernatant of dermal fibroblasts with and without UVA radiation; format: cell-based
Source text: as §1, §2, §3, §4

Tyrosinase [3] = conditions: concentration for 50% inhibition; L-DOPA; dopachrome at 475 nm
Experimental: (§8) Tyrosinase inhibition: L-DOPA was mixed with tyrosinase and the extract to be tested. The optical density of the dopachrome was analyzed at 475 nm. The kinetics were then investigated and the concentration for a 50% strength inhibition (EC50) was determined.

pancreas elastase [4] = target: pancreas elastase (Homo sapiens, UniProt Q9UNI1); assay: Inhibition of the elastase activity; format: biochemical; conditions: natural substrate B (elastin/Congo Red); 30 min, 20° C.
Experimental: (§5) Serine proteases, such as, for example, elastase or collagenase, bring about the degradation of elastin, proteoglycans and collagen and thus cause a weakening of the connective tissue. In the following test, the inhibiting properties of the extracts toward a pancreas elastase were investigated in two systems, firstly in a chromogenic synthetic substrate A and secondly in a natural substrate B (elastin/Congo Red). The amount of extracts used was 0.3% by weight, and the incubation time was 30 min (20° C.). The inhibition was monitored photometrically at 410 and 520 nm, and the standard used was α1-antitrypsin ([…]).

pancreas elastase [5] = assay: Inhibition of the elastase activity; format: biochemical; conditions: chromogenic synthetic substrate A; 30 min, 20° C.
Experimental: as §5

Human MMP-1 = assay: Release of MMP-1 from dermal fibroblasts with and without UVA radiation; format: cell-based; conditions: concentration 0.1 μM
Source text: The ability of leaf extracts from Argania spinosa to reduce the toxic effect of UVA rays was investigated. This in vitro test investigates the ability to reduce the content of matrix metalloproteinases, such as, for example, MMP-1, which are released by human fibroblasts following UVA radiation. More MMP are released under the influence of UVA radiation. UVA rays were chosen as the model since they penetrate into the dermis, where they induce oxidative stress, which accelerates skin aging. Furthermore, it is already known that the release of matrix metalloproteinases increases during the normal aging process of the skin. Inhibition of the MMP would thus counteract the aging process of the skin. The in vitro system used was a culture of dermal fibroblasts, and the parameter determined was the release of MMP-1 from these fibroblasts under the influence of UV radiation. To carry out the experiment, a fibroblast culture was prepared in a defined culture medium (DMEM) with fetal calf serum and inoculated 2–3 days later with the test substances. […] The abbreviation TIMP is understood as meaning a naturally occurring inhibitor of the metalloproteinase under the name “tissue inhibitor of matrix metalloproteinase”. The MMP and TIMP were determined using two different kits, which are commercially available under the name RPN2610 and RPN2611 from Amersham. […]

TIMP-1 = assay: Content of TIMP-1 in dermal fibroblast culture with and without UVA radiation; format: cell-based, human; conditions: concentration 0.1 μM
Experimental: To carry out the experiment, a fibroblast culture was prepared in a defined culture medium (DMEM) with fetal calf serum and inoculated 2–3 days later with the test substances. […] The abbreviation TIMP is understood as meaning a naturally occurring inhibitor of the metalloproteinase under the name “tissue inhibitor of matrix metalloproteinase”. The MMP and TIMP were determined using two different kits, which are commercially available under the name RPN2610 and RPN2611 from Amersham. The data given is the amount of MMP-1 and TIMP-1 in ng/ml from a test series with triple determination.

[6] = test system: collagenase from Chlostridium histolyticum; assay: Collagenase inhibition, substrate C FALGPA; format: biochemical; conditions: 30 min, 20° C.
Experimental: (§6) The biochemical test of collagenase inhibition was realized with a collagenase from Chlostridium histolyticum in a chromogenic synthetic substrate C: FALGPA (furylacryloyl-Leu-Gly-Pro-Ala), a specific substrate for collagenase, which […] by the enzyme. This substrate was obtained from SIGMA.
(§7) The amount of extracts used was 0.3% by weight, and the incubation time was 30 min (20° C.). The inhibition was investigated by determining the optical density “OD” at 234 nm.

[7] = target: collagenase from Chlostridium histolyticum; assay: Collagenase inhibition, chromogenic synthetic substrate C (FALGPA); format: biochemical; conditions: incubation 30 min, 20° C., OD at 234 nm
Experimental: as §6, §7

tyrosinase [8] = assay: Tyrosinase inhibition in tubo; format: biochemical; conditions: L-DOPA substrate; dopachrome optical density 475 nm; concentration for 50% inhibition
Experimental: as §8

B16 melanocytes = assay: Inhibition of melanogenesis on B16 melanocytes; format: cell-based; conditions: concentration 0.0003% by wt.; ratio of proportion of proteins to content of melanin
Experimental: 2. Inhibition of melanogenesis on B16 melanocytes: The B16 melanocytes are cultivated in a defined medium (DMEM with 10% fetal calf serum) and incubated for 3 days at 37° C. and 5% CO2. The growth medium was replaced by the defined medium without calf serum, which comprised a certain content of the extracts to be tested. After further incubation for 3 days, the proportion of intact cells was determined via the content of cell proteins in accordance with the Bradford method (Anal. Biochem. 72, 248–254, 1976), and the content of melanin formed was determined by analyzing the optical density at 475 nm in accordance with the method described by Ando et al. 17th IFSCC Congress—Yokohama, 2, 909–918, 1992.
The results were determined as activity index in the ratio of proportion of proteins to content of melanin: the greater the index, the higher the inhibition activity and the lower the stimulation of melanogenesis.

Sequence of pancreas elastase (Homo sapiens, UniProt Q9UNI1) (Q9UNI1 19-258): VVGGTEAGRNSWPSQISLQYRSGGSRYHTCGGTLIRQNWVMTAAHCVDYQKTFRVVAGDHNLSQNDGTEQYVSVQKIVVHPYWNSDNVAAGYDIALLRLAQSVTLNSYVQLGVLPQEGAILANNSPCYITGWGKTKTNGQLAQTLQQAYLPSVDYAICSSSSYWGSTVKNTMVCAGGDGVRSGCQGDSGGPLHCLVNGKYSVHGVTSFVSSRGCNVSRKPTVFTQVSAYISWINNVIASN
Sequence of pancreas elastase (Q9UNI1 19-258): as above

C[C@@H]1C[C@H]2[C@@H]3CCC4=CC(=O)C=C[C@]4(C)[C@@]3(F)[C@@H](O)C[C@]2(C)[C@@]1(O)C(=O)CO [Dexamethasone]
content of MMP-1 (in words) [1]: content of MMP-1 was already reduced
content of TIMP-1 (in words) [2]: reduction in the content of TIMP-1

Oc1ccc(O)cc1 [Hydroquinone]
EC50 (Tyrosinase in tubo) (Tyrosinase [3]): EC50 = 0.025%

α1-antitrypsin
Elastase inhibition IC50, Substrate B (pancreas elastase [4]): IC50 = 0.034%
Elastase inhibition IC50, Substrate A (pancreas elastase [5]): IC50 = 0.01%

C[C@@H]1C[C@H]2[C@@H]3CCC4=CC(=O)C=C[C@]4(C)[C@@]3(F)[C@@H](O)C[C@]2(C)[C@@]1(O)C(=O)CO [Dexamethasone, dexamethasone]
MMP-1 in ng/ml (Human MMP-1; UVA 20 J/cm^2): 7 ng/mL
MMP-1 in ng/ml (Human MMP-1; without UVA radiation): 2 ng/mL
TIMP-1 in ng/ml (TIMP-1; UVA 20 J/cm^2): 19 ng/mL
TIMP-1 in ng/ml (TIMP-1; without UVA radiation): 39 ng/mL

N[C@@H](CS)C(=O)O [Cystein]
Collagenase inhibition IC50, Substrate C [6]: IC50 = 1.56%
IC50 (Collagenase inhibition) [7]: IC50 = 1.56%

Oc1ccc(O)cc1 [Hydroquinone, hydroquinone]
Tyrosinase in tubo EC50 (tyrosinase [8]): EC50 = 0.025%
Melanin synthesis Index (B16 melanocytes): 2.21
